Series [1] addresses T1, P2X purinoceptor 7 (Homo sapiens, UniProt Q99572).
T1 sequence (Q99572 whole entry): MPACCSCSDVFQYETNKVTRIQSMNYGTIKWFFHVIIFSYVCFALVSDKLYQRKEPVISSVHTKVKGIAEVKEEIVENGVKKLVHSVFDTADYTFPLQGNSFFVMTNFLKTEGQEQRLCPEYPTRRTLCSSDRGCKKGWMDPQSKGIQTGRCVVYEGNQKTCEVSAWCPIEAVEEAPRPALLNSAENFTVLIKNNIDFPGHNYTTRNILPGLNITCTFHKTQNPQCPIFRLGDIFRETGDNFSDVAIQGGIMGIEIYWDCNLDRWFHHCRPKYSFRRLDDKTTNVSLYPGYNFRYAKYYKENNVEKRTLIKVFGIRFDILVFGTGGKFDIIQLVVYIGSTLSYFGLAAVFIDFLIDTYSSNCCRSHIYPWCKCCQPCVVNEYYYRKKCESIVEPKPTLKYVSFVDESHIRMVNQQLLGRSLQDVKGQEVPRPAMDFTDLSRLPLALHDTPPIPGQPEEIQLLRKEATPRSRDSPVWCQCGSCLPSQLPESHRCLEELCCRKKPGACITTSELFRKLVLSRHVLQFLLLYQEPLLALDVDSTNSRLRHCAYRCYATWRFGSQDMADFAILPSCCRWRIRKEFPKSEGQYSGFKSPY
Briefly: Antagonist activity at human recombinant P2X7 receptor expressed in HEK293 cells by ethidium bromide […] assay. Type of series: functional, cell-based.

Series [2] addresses T2, P2X purinoceptor 7 (Rattus norvegicus, UniProt Q64663).
T2 sequence (Q64663 whole entry): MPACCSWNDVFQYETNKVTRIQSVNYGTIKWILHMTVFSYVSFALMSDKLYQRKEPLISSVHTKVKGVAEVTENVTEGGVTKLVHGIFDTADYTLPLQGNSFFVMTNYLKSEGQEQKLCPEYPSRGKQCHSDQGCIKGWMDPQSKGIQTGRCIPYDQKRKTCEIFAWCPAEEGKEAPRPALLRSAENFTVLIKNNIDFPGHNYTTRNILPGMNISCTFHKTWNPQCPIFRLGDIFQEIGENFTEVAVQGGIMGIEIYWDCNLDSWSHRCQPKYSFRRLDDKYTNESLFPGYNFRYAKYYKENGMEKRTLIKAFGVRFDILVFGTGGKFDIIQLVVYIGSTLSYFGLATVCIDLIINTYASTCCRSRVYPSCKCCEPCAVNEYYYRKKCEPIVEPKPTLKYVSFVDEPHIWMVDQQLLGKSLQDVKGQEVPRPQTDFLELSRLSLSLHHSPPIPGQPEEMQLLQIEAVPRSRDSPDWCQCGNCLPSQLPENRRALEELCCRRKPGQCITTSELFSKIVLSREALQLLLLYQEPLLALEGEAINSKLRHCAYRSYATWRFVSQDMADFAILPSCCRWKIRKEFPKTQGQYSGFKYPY
Briefly: Antagonist activity at rat recombinant P2X7 receptor expressed in HEK293 cells by ethidium bromide […] assay. The class given is functional, cell-based.

Series [3] can be described thus: Solubility of compound in simulated gastric fluid at pH 1.2 after 1 hr. The class given is physicochemical.
A short description of series [4]: Solubility of compound in fed state simulated intestinal fluid at pH 5 after 1 hr. Type of series: physicochemical.
A short description of series [5]: Solubility of compound in fasted state simulated intestinal fluid at pH 6.5 after 1 hr. The class given is physicochemical.
A further series has as its target Cytochrome P450 2C19 (Homo sapiens, UniProt P33261). Briefly: Inhibition of CYP2C19. The class given is ADME.
Another series deals with Cytochrome P450 2D6 (Homo sapiens, UniProt P10635). Briefly: Inhibition of CYP2D6. Type of series: ADME.
Cytochrome P450 2D6, sequence (P10635 whole entry): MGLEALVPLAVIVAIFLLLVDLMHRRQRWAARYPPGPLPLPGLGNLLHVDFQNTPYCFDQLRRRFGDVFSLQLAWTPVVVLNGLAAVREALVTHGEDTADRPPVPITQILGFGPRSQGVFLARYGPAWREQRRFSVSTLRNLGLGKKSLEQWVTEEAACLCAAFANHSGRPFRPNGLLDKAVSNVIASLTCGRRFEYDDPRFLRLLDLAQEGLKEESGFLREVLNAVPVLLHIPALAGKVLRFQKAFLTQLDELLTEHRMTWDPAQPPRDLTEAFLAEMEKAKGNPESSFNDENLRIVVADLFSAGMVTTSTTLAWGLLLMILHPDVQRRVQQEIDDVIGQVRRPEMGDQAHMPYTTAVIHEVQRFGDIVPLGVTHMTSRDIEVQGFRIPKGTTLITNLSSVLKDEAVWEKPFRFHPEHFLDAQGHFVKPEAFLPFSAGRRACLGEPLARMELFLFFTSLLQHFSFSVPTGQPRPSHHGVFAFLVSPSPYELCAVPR
Series [6] in a line: Dissociation constant, pKa of the compound. Type of series: physicochemical.
The target of another series is T3, Cytochrome P450 1A2 (Homo sapiens, UniProt P05177).
T3 sequence (P05177 whole entry): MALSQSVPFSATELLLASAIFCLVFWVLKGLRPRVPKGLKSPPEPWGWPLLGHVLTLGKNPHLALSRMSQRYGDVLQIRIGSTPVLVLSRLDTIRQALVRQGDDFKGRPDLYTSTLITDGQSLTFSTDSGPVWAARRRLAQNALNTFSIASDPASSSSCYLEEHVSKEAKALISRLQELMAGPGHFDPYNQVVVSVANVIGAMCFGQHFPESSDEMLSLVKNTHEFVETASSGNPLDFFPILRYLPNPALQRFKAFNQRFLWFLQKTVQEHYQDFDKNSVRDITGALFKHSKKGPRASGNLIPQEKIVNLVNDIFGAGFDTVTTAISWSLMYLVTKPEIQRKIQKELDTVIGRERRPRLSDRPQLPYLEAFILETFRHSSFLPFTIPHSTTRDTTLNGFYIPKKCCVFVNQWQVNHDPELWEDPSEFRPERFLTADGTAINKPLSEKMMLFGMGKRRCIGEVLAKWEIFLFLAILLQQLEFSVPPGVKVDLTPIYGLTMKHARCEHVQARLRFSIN
Briefly: Inhibition of CYP1A2. Type of series: ADME.

The next series deals with Cytochrome P450 2C9 (Homo sapiens, UniProt P11712). Briefly: Inhibition of CYP2C9. The class given is ADME.
Cytochrome P450 2C9, sequence (P11712 whole entry): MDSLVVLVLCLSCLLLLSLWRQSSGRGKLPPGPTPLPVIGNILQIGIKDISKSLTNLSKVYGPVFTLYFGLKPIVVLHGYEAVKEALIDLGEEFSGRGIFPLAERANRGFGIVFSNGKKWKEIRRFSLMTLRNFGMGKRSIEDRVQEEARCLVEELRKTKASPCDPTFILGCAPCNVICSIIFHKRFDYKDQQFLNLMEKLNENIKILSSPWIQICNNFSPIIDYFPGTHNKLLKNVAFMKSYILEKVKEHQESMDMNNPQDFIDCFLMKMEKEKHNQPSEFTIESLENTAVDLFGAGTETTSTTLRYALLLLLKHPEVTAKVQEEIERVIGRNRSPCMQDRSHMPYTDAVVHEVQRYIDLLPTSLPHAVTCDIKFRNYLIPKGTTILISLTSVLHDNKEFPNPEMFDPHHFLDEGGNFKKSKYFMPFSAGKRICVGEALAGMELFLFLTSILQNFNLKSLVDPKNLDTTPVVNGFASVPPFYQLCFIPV
A further series addresses Albumin (Homo sapiens, UniProt P02768). Nature of the series: Protein binding in human serum albumin. Type of series: ADME. The conditions noted are these: read-out: PB.
The target in a further series is Cytochrome P450 3A4 (Homo sapiens, UniProt P08684). Briefly: Inhibition of CYP3A4 using diethoxyflourescein as a substrate. Type of series: ADME.
Cytochrome P450 3A4, sequence (P08684 whole entry): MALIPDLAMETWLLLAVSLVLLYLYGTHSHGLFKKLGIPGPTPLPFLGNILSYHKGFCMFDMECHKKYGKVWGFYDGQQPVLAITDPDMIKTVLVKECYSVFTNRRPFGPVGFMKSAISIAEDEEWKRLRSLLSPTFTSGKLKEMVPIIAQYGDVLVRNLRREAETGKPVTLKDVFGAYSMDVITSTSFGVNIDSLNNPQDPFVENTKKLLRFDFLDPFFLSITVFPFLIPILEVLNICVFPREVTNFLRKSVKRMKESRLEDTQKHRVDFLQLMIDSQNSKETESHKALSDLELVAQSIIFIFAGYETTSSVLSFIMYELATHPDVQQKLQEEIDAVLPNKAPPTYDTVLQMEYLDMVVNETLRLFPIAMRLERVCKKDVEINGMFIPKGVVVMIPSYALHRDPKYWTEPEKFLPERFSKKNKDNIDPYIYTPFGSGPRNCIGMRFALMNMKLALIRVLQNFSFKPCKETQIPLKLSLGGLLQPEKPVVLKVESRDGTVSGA
Series [7] in a line: Cmax in rat at 3 mg/kg, po. The class given is ADME, organism-based. Also noted: dose 3 mg/kg, route oral. Particulars: in vivo.
Series [8] can be described thus: Tmax in rat at 3 mg/kg, po. Type of series: ADME, organism-based. More on the design: dose 3 mg/kg, route oral. Particulars: in vivo.
A short description of series [9]: Solubility of the compound in water after 1 hr. Type of series: physicochemical.
The subject of another series is Rattus norvegicus. Nature of the series: Dose normalized AUC (0 to 6 hrs) in rat at 3 mg/kg, po. Type of series: ADME, organism-based. More on the design: dose 3 mg/kg, route oral. The conditions noted are these: in vivo.

In brackets after ≈: the same amount, converted by molar mass.

Albumin, sequence (P02768 whole entry): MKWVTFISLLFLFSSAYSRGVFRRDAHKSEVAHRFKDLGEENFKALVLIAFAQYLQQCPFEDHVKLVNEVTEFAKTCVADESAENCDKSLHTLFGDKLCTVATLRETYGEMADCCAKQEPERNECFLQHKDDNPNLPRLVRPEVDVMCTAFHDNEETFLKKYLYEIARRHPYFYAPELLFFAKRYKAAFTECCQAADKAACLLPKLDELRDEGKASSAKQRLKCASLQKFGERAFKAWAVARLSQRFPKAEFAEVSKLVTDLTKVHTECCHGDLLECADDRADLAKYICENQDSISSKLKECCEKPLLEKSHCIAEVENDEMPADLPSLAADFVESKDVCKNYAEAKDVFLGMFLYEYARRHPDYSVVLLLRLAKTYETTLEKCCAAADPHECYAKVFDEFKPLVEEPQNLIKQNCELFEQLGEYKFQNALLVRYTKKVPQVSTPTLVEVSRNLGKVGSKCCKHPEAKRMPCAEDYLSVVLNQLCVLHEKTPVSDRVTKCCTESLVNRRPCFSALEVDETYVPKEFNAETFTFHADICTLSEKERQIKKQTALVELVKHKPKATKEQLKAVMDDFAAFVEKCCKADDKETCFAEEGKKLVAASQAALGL
Cytochrome P450 2C19, sequence (P33261 whole entry): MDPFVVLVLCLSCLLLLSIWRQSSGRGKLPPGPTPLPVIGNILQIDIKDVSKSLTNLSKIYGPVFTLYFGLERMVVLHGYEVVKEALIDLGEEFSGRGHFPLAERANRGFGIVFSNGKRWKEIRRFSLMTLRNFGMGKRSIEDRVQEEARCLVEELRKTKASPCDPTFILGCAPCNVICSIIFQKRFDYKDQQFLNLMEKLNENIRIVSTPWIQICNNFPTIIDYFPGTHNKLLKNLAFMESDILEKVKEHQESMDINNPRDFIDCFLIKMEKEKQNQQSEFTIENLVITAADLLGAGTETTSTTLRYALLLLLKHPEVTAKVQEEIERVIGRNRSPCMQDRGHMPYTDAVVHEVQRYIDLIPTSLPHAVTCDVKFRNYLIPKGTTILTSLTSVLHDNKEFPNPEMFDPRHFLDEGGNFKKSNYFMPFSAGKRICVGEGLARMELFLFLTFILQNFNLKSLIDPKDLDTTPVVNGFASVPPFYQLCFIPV

By IC50 is commonly meant the concentration needed to halve the response being measured. In the case of `Cc1nc(-c2ccccc2)n(C)c1CC(=O)NCc1ccc(F)cc1Cl`, the IC50 on P2X purinoceptor 7 [1] is 39.8 nM; on P2X purinoceptor 7 [2], 251 nM.
Usually solubility stands for the concentration that dissolves in the medium under given conditions. As to `Cc1nn(-c2ccccc2)c(C)c1CC(=O)NCc1ccc(F)cc1Cl`, the figures for the solubility at 1 h in series [3], in series [4] and in series [5] were 410 µg/mL (≈ 1100 µM), 100 µg/mL (≈ 269 µM) and 120 µg/mL (≈ 323 µM), respectively.
The pKa is the pH at which an ionisable group is half protonated. Read a low pKa as a stronger acid or weaker base. Regarding `Cc1nc(-c2ccc(F)cc2F)n(C)c1CC(=O)NCc1ccc(F)cc1Cl` [listing 1 of 2 here], the IC50 is above 10000 nM on Cytochrome P450 2C19; above 10000 nM at Cytochrome P450 2D6; above 10000 nM on Cytochrome P450 1A2; above 10000 nM at Cytochrome P450 2C9; 5500 nM against Cytochrome P450 3A4. Besides, in [6], the pKa was found to be 6.47. For the same molecule, the fraction unbound at Albumin came to 0.09.
Take `CCn1c(-c2ccccc2)nc(C)c1CC(=O)NCc1ccc(F)cc1Cl`: the values for the IC50 on P2X purinoceptor 7 [1] and on P2X purinoceptor 7 [2] were 100 nM and 158 nM, respectively.
Regarding `Cc1nc(-c2ccccc2)n(C)c1CC(=O)NCc1cccc(Cl)c1C`, the IC50 at P2X purinoceptor 7 [1] is 50.1 nM; at P2X purinoceptor 7 [2], 1580 nM.
The matching figures for `CCn1c(-c2ccccc2)nc(C)c1CC(=O)NCc1cccc(Cl)c1C`: 50.1 nM and 631 nM.
The matching figures for `Cc1cccc(Cl)c1CNC(=O)Cc1c(C)nc(-c2ccccc2)n1C`: 50.1 nM and 3160 nM.
Take `CCn1c(-c2ccccc2)nc(C)c1CC(=O)NCc1c(C)cccc1Cl`: the IC50 is 50.1 nM on P2X purinoceptor 7 [1] and 501 nM on P2X purinoceptor 7 [2].
The matching figures for `Cc1nc(-c2ccccc2)n(C)c1CC(=O)NCc1ccc(F)c(F)c1F`: 100 nM and 5010 nM.
The matching figures for `CCn1c(-c2ccccc2)nc(C)c1CC(=O)NCc1ccc(F)c(F)c1F`: 158 nM and 3980 nM.
In general, Cmax refers to the peak of the concentration-time curve. Usually Tmax stands for the time at which the peak concentration occurs. Molecule `Cc1nc(-c2ccc(F)cc2F)n(C)c1CC(=O)NCc1ccc(F)cc1Cl` [listing 2 of 2 here] returned a Cmax in [7] of 430 nM. Moreover, the solubility at 1 h was above 1000 µg/mL in series [3], 920 µg/mL (≈ 2260 µM) in series [9], 900 µg/mL (≈ 2210 µM) in series [4] and 370 µg/mL (≈ 907 µM) in series [5]. Further, the Tmax in series [8] stood at 30 min. For the same molecule, the AUC/dose in the series with Rattus norvegicus was 6.8 kg·min/L. Moreover, the IC50 at P2X purinoceptor 7 [1] is 39.8 nM; on P2X purinoceptor 7 [2], 316 nM.
For `CCn1c(-c2ccc(F)cc2F)nc(C)c1CC(=O)NCc1ccc(F)cc1Cl`, the IC50 on P2X purinoceptor 7 [1] is 100 nM; at P2X purinoceptor 7 [2], 158 nM.
The matching figures for `Cc1nc(-c2ccc(F)cc2F)n(C)c1CC(=O)NCc1cccc(Cl)c1C`: 31.6 nM and 631 nM.
The matching figures for `CCn1c(-c2ccc(F)cc2F)nc(C)c1CC(=O)NCc1cccc(Cl)c1C`: 39.8 nM and 398 nM.
The matching figures for `CCn1c(-c2ccc(F)cc2F)nc(C)c1CC(=O)NCc1c(C)cccc1Cl`: 50.1 nM and 631 nM.
For `Cc1nc(-c2ccc(F)cc2F)n(C)c1CC(=O)NCc1ccc(F)c(F)c1F`, the IC50 was 63.1 nM at P2X purinoceptor 7 [1] and above 10000 nM at P2X purinoceptor 7 [2].
The matching figures for `CCn1c(-c2ccc(F)cc2F)nc(C)c1CC(=O)NCc1ccc(F)c(F)c1F`: 126 nM and 1000 nM.
The matching figures for `Cn1c(CC(=O)NCc2ccc(F)cc2Cl)cnc1-c1ccc(F)cc1F`: 200 nM and 251 nM.
The matching figures for `CCn1c(CC(=O)NCc2ccc(F)cc2Cl)cnc1-c1ccc(F)cc1F`: 501 nM and 398 nM.
As for `Cc1c(Cl)cccc1CNC(=O)Cc1cnc(-c2ccc(F)cc2F)n1C`, the IC50 on P2X purinoceptor 7 [1] was 63.1 nM; at P2X purinoceptor 7 [2], 631 nM.
